Entries after “also recorded” stand apart in the source; their conditions may differ.

For experiment [1], the target named is PfBDP1-BRD (P. falciparum Bromodomain Protein 1 bromodomain). The experiment is described as follows: ITC binding assay of PfBDP1-BRD with histone peptides. Also noted: species or system Plasmodium falciparum. Conditions: 5°C, 20 mM sodium phosphate pH 7.5, 150 mM NaCl, 1 mM TCEP, protein (303–488 or 333–456) 100–200 μM in cell, peptide 2.5–5.0 mM in syringe, 1:1 binding model, mean ± SD of three runs, non-binding ligands in duplicate. As to the method:
Isothermal titration calorimetry (ITC) experiments were carried out using a MicroCal PEAQ-ITC and a MicroCal iTC200 (Malvern Panalytical). The purified PfBDP1-BRD proteins (containing residues 303–488 or 333–456) were dialyzed for 48 h at 4°C into ITC buffer containing 20 mM sodium phosphate buffer pH 7.5, 150 mM NaCl, and 1 mM TCEP. The dialyzed PfBDP1-BRD (303–488 or 333–456) proteins were added to the sample cell at concentrations of 100–200 μM, and between 2.5 and 5.0 mM of each histone peptide in the ITC dialysis buffer was placed in the injection syringe. A total of 20 injections were carried out, with the parameters set as follows. […] The remaining 19 injections were completed with an injection volume of 2 μL, a reaction time of 4 s, and a 150 s spacing time between each injection. All ITC runs were carried out at 5°C with a differential power (DP) value of 10, the feedback set to high, at a stirring speed of 750 RPM, and with an initial delay for the reaction set to 60 s.
The ITC data obtained were analyzed using the MicroCal PEAQ-ITC 200 analysis software provided with the instrument (Malvern Panalytical). The heat of dilutions for the buffer and peptide ligands were obtained from titrating buffer into buffer, buffer into PfBDP1-BRD protein (303–488 and 333–456), and histone peptide into buffer. The heats of dilution for the histone peptides were subtracted from the raw isotherms obtained from the histone peptide and PfBDP1-BRD (303–488 and 333–456) protein titrations. The first injection was discarded from the data analysis, and the data was integrated using a 1:1 binding model assuming a single set of identical binding sites. A Marquandt nonlinear least-squares analysis was used to calculate the binding affinities and N values from the normalized heat changes. Binding experiments were repeated in triplicate for each ligand and the mean KD was calculated from the average of the three runs, with the standard deviation coming from the mean.

Another experiment deals with PfBDP1-BRD (303–488). The experiment in a line: NMR chemical shift perturbation (2D 15N-1H HSQC) titration with histone peptides. The experiment is classed as binding, Plasmodium falciparum. The conditions noted are these: 0.3–0.5 mM 15N-labeled PfBDP1-BRD (303–488); 20 mM Tris-HCl pH 6.8, 150 mM NaCl, 10 mM DTT, 10% D2O; molar ratios 1:0, 1:0.5, 1:1, 1:2.5, 1:5; 25°C; result in words. As to the method:
Chemical shift perturbation experiments were performed using 0.3–0.5 mM of uniformly ^15N-labeled PfBDP1-BRD (303–488) in NMR buffer containing 20 mM Tris-HCl pH 6.8, 150 mM NaCl, 10 mM DTT and 10% D2O. […] Two-dimensional ^15N−^1H HSQC (heteronuclear single quantum coherence) experiments for all samples were acquired on Bruker Avance III spectrometer equipped with a cryogenic 1.7 mm probe. The temperature of the samples was regulated at 25°C throughout data collection. All spectra were processed using TopSpin (Bruker) as described previously and analyzed using NMRFAM-SPARKY [48].

For the substance “MEVPGVIGGKVGG(Kac)VGGKVLGLG [H2A.ZK15ac, histone H2A.Z peptide mono-acetylated at K15]”, in experiment [1], the “PfBDP1-BRD KD” value is recorded as “No Binding”.

As for “SGKGPAQKSQAAKKTAG(Kac)TLGPR [H2B.ZK18ac, histone H2B.Z peptide mono-acetylated at K18]”, the “PfBDP1-BRD KD” value in experiment [1] is on record as “No Binding”.

As to “SGKGPAQ(Kac)SQAAKKTAGKTLGPR [H2B.ZK8ac, histone H2B.Z peptide mono-acetylated at K8]”, the “PfBDP1-BRD KD” value in experiment [1] is reported as “No Binding”.

For the substance “SGKGPAQKSQAA(Kac)KTAGKTLGPR [H2B.ZK13ac, histone H2B.Z peptide mono-acetylated at K13]”, in experiment [1], the “PfBDP1-BRD KD” value is “No Binding”.

In the case of “SGKGPAQKSQAAK(Kac)TAGKTLGPR [H2B.ZK14ac, histone H2B.Z peptide mono-acetylated at K14]”, the “PfBDP1-BRD KD” value in experiment [1] is “No Binding”.

“MEVPGVIGGKVGGKVGG(Kac)VLGLG [H2A.ZK19ac, histone H2A.Z peptide mono-acetylated at K19]”: the “PfBDP1-BRD KD” value in experiment [1] is “No Binding”.

Take “SGRGKGG(Kac)GLGKGGAKRHRKVLRD [H4K8ac, histone H4 peptide (1–24) mono-acetylated at K8]”: in experiment [1], the “PfBDP1-BRD KD” value was “No Binding”.

As for “MEVPGVIGGKVGGKVGGKVLGLG [H2A.Z unmodified, unmodified P. falciparum histone variant H2A.Z peptide]”, the “PfBDP1-BRD KD” value in experiment [1] is recorded as “No Binding”.

On to “SGKGPAQKSQAAKKTAGKTLGPR [H2B.Z unmodified, unmodified P. falciparum histone variant H2B.Z peptide]”, for which the “PfBDP1-BRD KD” value in experiment [1] is on record as “No Binding”.

For the substance “SG(Kac)GPAQKSQAAKKTAGKTLGPR [H2B.ZK3ac, histone H2B.Z peptide mono-acetylated at K3]”, the “PfBDP1-BRD KD” value in experiment [1] was “No Binding”.

“ARTKQTAR(Kac)STGGKAPRKQLATKA [H3K9ac, histone H3 peptide (1–24) mono-acetylated at lysine 9]”: the “Chemical shift perturbations (CSPs) of PfBDP1-BRD backbone amide peaks upon addition of peptide” value with PfBDP1-BRD (303–488) is “did not observe any CSPs”. Moreover, the “PfBDP1-BRD KD” value in experiment [1] is reported as “did not observe any interaction; also recorded: No Binding”.

For “MEVPGVIGG(Kac)VGGKVGGKVLGLG [H2A.ZK11ac, histone H2A.Z peptide mono-acetylated at K11]”, the “Chemical shift perturbations (CSPs) of PfBDP1-BRD backbone amide peaks upon addition of peptide” value in the experiment with PfBDP1-BRD (303–488) is given as “absence of CSPs”. Further, the “PfBDP1-BRD KD” value in experiment [1] is reported as “No Binding”.
